Experimental findings from US9096560B2, “5-heterocyclylalkyl-3-hydroxy-2-phenylcyclopent-2-enones as herbicides” (Syngenta Limited, priority 2008, dated 2015) are described below.

Format in all cases: in vivo
Assay [1] has as its system Lolium perenne (LOLPE). In words: Example B pre-emergence herbicidal test, LOLPE. The note with it: Lolium perenne, 312 h, rate 250 g/ha, evaluated after 13 days, 100=total damage to plant, 0=no damage to plant. The gist of the method: (§1)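 Pre-emergence spray one day after sowing; vehicle acetone/water (50:50), 0.5% Tween 20. Percent damage (0 = no effect, 100 = plant killed) recorded 13 days later.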

Assay [2] concerns Alopecurus myosuroides (ALOMY). Description: Example B pre-emergence herbicidal test, ALOMY. The conditions noted are these: Alopecurus myosuroides, 312 h, rate 250 g/ha, evaluated after 13 days, 100=total damage to plant, 0=no damage to plant. Summed up: as §1
Assay [3] concerns Echinochloa crus-galli (ECHCG). In words: Example B pre-emergence herbicidal test, ECHCG. The note with it: Echinochloa crus-galli, 312 h, rate 250 g/ha, evaluated after 13 days, 100=total damage to plant, 0=no damage to plant. Summed up:
as §1

For assay [4], the system named is Avena fatua (AVEFA). In words: Example B pre-emergence herbicidal test, AVEFA. The conditions noted are these: Avena fatua, 312 h, rate 250 g/ha, evaluated after 13 days, 100=total damage to plant, 0=no damage to plant. Summed up: as §1
In assay [5] the test system is Lolium perenne (LOLPE). Description: Example B post-emergence herbicidal test, LOLPE. The note with it: Lolium perenne, 312 h, rate 250 g/ha, evaluated after 13 days, scale 0-100, read-out: Post-emergence activity LOLPE (100=total damage to plant; 0=no damage to plant). The gist of the method: (§2)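 Foliar application to 8-day-old pot-grown seedlings in a glasshouse (24/16 °C, 14 h photoperiod, 65% humidity). Spray solution was derived from an acetone/water (50:50) formulation with 0.5% Tween 20. Injury was assessed 13 days later on a 0–100 scale.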

Assay [6] relates to Alopecurus myosuroides (ALOMY). In words: Example B post-emergence herbicidal test, ALOMY. The conditions noted are these: Alopecurus myosuroides, 312 h, rate 250 g/ha, evaluated after 13 days, scale 0-100, read-out: Post-emergence activity ALOMY (100=total damage to plant; 0=no damage to plant). Summed up:
as §2

Assay [7] relates to Echinochloa crus-galli (ECHCG). In words: Example B post-emergence herbicidal test, ECHCG. The conditions noted are these: Echinochloa crus-galli, 312 h, rate 250 g/ha, evaluated after 13 days, scale 0-100, read-out: Post-emergence activity ECHCG (100=total damage to plant; 0=no damage to plant). Summed up:
as §2

Assay [8] deals with Avena fatua (AVEFA). Description: Example B post-emergence herbicidal test, AVEFA. The conditions noted are these: Avena fatua, 312 h, rate 250 g/ha, evaluated after 13 days, scale 0-100, read-out: Post-emergence activity AVEFA (100=total damage to plant; 0=no damage to plant). Summed up:
as §2

SMILES strings stand for the structures.

Regarding `CCc1cc(C)cc(C)c1C1C(=O)CC(CCC2CCOCC2)C1=O` (stereo not shown) [Compound T58], the pest or weed control at 250 g/ha turned out to be 100% with Lolium perenne (LOLPE) [1]; 90% in assay [2]; 100% in assay [3]; 90% in the assay on Avena fatua (AVEFA) [4]; 90% in the assay with Lolium perenne (LOLPE) [5]; 100% in assay [6]. Moreover, the values for the pest or weed control at 250 g/ha (in assay [7]; in the assay on Avena fatua (AVEFA) [8]) were 100% and 90%, respectively.
`CCc1cc(C)cc(C)c1C1C(=O)C/C(=C\C2CCOC2)C1=O` (stereo not shown) [Compound T59]: the pest or weed control at 250 g/ha came to 100% in the assay on Lolium perenne (LOLPE) [1]; 90% in assay [2]; 100% in assay [3]; 90% in the assay with Avena fatua (AVEFA) [4]; 100% with Lolium perenne (LOLPE) [5]; 90% in assay [6]. Besides, the pest or weed control at 250 g/ha is 90% in assay [7] and 100% with Avena fatua (AVEFA) [8].
`Cc1cc(C)c(C2C(=O)CC(CC3CCN(c4ccc(Cl)cc4)CC3)C2=O)c(C)c1` (stereo not shown) [Compound T60]: the pest or weed control at 250 g/ha is 10% with Lolium perenne (LOLPE) [1]; 10% in assay [2]; 0% in assay [3]; 0% in the assay with Avena fatua (AVEFA) [4]; 20% in the assay on Lolium perenne (LOLPE) [5]; 30% in assay [6]. The pest or weed control at 250 g/ha (in assay [7]; with Avena fatua (AVEFA) [8]) was 10% each time.
Turning to `Cc1cc(-c2ccc(F)cc2)cc(C)c1C1C(=O)C/C(=C\C2CCOCC2)C1=O` (stereo not shown) [Compound T61], the pest or weed control at 250 g/ha amounted to 90% in the assay on Lolium perenne (LOLPE) [1]; 70% in assay [2]; 90% in assay [3]; 80% with Avena fatua (AVEFA) [4]; 90% in the assay with Lolium perenne (LOLPE) [5]; 90% in assay [6]. In addition, the pest or weed control at 250 g/ha (in assay [7]; in the assay with Avena fatua (AVEFA) [8]) was 100% throughout.
Turning to `Cc1cc(-c2ccc(F)cc2)cc(C)c1C1C(=O)CC(CC2CCOCC2)C1=O` (stereo not shown) [Compound T63], the pest or weed control at 250 g/ha turned out to be 100% in the assay with Lolium perenne (LOLPE) [1]; 70% in assay [2]; 100% in assay [3]; 90% in the assay on Avena fatua (AVEFA) [4]; 90% in the assay with Lolium perenne (LOLPE) [5]; 90% in assay [6]. Further, the pest or weed control at 250 g/ha in assay [7] was found to be 90%; in the assay on Avena fatua (AVEFA) [8] it was 100%.
Turning to `Cc1cc(-c2ccc(F)c(Cl)c2)cc(C)c1C1C(=O)C/C(=C\C2CCOCC2)C1=O` (stereo not shown) [Compound T65], the pest or weed control at 250 g/ha worked out at 80% in the assay with Lolium perenne (LOLPE) [1]; 70% in assay [2]; 100% in assay [3]; 80% in the assay on Avena fatua (AVEFA) [4]; 90% in the assay on Lolium perenne (LOLPE) [5]; 90% in assay [6]. Further, the pest or weed control at 250 g/ha (in assay [7]; in the assay on Avena fatua (AVEFA) [8]) was 100% in each case.
In the case of `Cc1cc(C)c(C2C(=O)CC(CC3CCN(C(=O)Oc4ccccc4)CC3)C2=O)c(C)c1` (stereo not shown) [Compound T68], the pest or weed control at 250 g/ha with Lolium perenne (LOLPE) [1] is 90%; in assay [2], 30%; in assay [3] it was 50%; in the assay on Avena fatua (AVEFA) [4], 40%; in the assay with Lolium perenne (LOLPE) [5] it was 90%; in assay [6], 60%. Moreover, the pest or weed control at 250 g/ha (in assay [7]; in the assay with Avena fatua (AVEFA) [8]) was 90% throughout.
Consider `CCCCOC(=O)N1CCC(CC2CC(=O)C(c3c(C)cc(C)cc3C)C2=O)CC1` (stereo not shown) [Compound T69], for which the pest or weed control at 250 g/ha was 10% in the assay with Lolium perenne (LOLPE) [1]; 0% in assay [2]; 20% in assay [3]; 10% in the assay with Avena fatua (AVEFA) [4]; 30% in the assay on Lolium perenne (LOLPE) [5]; 30% in assay [6]. Also, the pest or weed control at 250 g/ha in assay [7] was 20%; in the assay on Avena fatua (AVEFA) [8], 30%.
As to `Cc1cc(C)c(C2C(=O)CC(CC3CCN(C(=O)c4ccccc4)CC3)C2=O)c(C)c1` (stereo not shown) [Compound T70], the pest or weed control at 250 g/ha stood at 70% in the assay with Lolium perenne (LOLPE) [1]; 20% in assay [2]; 60% in assay [3]; 70% in the assay with Avena fatua (AVEFA) [4]; 80% in the assay on Lolium perenne (LOLPE) [5]; 70% in assay [6]. Moreover, the pest or weed control at 250 g/ha in assay [7] was 80%; with Avena fatua (AVEFA) [8], 100%.
For `Cc1cc(C)c(C2C(=O)CC(CC3CCN(C(=O)c4ccc(Cl)cc4Cl)CC3)C2=O)c(C)c1` (stereo not shown) [Compound T71], the pest or weed control at 250 g/ha was found to be 30% in the assay on Lolium perenne (LOLPE) [1]; 20% in assay [2]; 10% in assay [3]; 20% in the assay on Avena fatua (AVEFA) [4]; 40% in the assay on Lolium perenne (LOLPE) [5]; 30% in assay [6]. The pest or weed control at 250 g/ha in assay [7] was 70%; in the assay on Avena fatua (AVEFA) [8], 80%.
Regarding `Cc1cc(C)c(C2C(=O)CC(CC3CCN(C(=O)c4ccccc4C)CC3)C2=O)c(C)c1` (stereo not shown) [Compound T72], the pest or weed control at 250 g/ha with Lolium perenne (LOLPE) [1] amounted to 60%; in assay [2] it was 30%; in assay [3] it was 80%; with Avena fatua (AVEFA) [4], 20%; in the assay with Lolium perenne (LOLPE) [5], 80%; in assay [6], 50%. For the same molecule, the figures for the pest or weed control at 250 g/ha (in assay [7]; with Avena fatua (AVEFA) [8]) were 90% and 80%, respectively.
Consider `Cc1cc(C)c(C2C(=O)CC(CC3CCN(C(=O)c4cccc(Cl)c4)CC3)C2=O)c(C)c1` (stereo not shown) [Compound T73], for which the pest or weed control at 250 g/ha with Lolium perenne (LOLPE) [1] turned out to be 80%; in assay [2], 40%; in assay [3], 80%; in the assay with Avena fatua (AVEFA) [4], 80%; with Lolium perenne (LOLPE) [5], 80%; in assay [6], 90%. For the same molecule, the pest or weed control at 250 g/ha in assay [7] amounted to 90%; in the assay on Avena fatua (AVEFA) [8], 100%.
Turning to `Cc1cc(C)c(C2C(=O)CC(CC3CCN(C(=O)c4ccc(Cl)c(Cl)c4)CC3)C2=O)c(C)c1` (stereo not shown) [Compound T74], the pest or weed control at 250 g/ha was found to be 30% in the assay with Lolium perenne (LOLPE) [1]; 30% in assay [2]; 50% in assay [3]; 20% in the assay on Avena fatua (AVEFA) [4]; 40% in the assay on Lolium perenne (LOLPE) [5]; 70% in assay [6]. For the same molecule, the figures for the pest or weed control at 250 g/ha (in assay [7]; with Avena fatua (AVEFA) [8]) were 100% and 90%, respectively.
For `Cc1cc(C)c(C2C(=O)CC(CC3CCN(C(=O)c4ccc(Cl)cc4)CC3)C2=O)c(C)c1` (stereo not shown) [Compound T76], the pest or weed control at 250 g/ha in the assay with Lolium perenne (LOLPE) [1] amounted to 60%; in assay [2], 30%; in assay [3], 60%; in the assay on Avena fatua (AVEFA) [4], 20%; in the assay with Lolium perenne (LOLPE) [5] it was 40%; in assay [6], 90%. Further, the results for the pest or weed control at 250 g/ha (in assay [7]; in the assay on Avena fatua (AVEFA) [8]) were 90% and 100%, respectively.
On to `Cc1cc(C)c(C2C(=O)CC(CC3CCN(C(=O)c4ccc(-c5ccccc5)cc4)CC3)C2=O)c(C)c1` (stereo not shown) [Compound T77], for which the pest or weed control at 250 g/ha in the assay with Lolium perenne (LOLPE) [1] was determined as 0%; in assay [2], 0%; in assay [3] it was 0%; in the assay on Avena fatua (AVEFA) [4], 0%; with Lolium perenne (LOLPE) [5], 40%; in assay [6], 30%. In addition, the results for the pest or weed control at 250 g/ha (in assay [7]; in the assay with Avena fatua (AVEFA) [8]) were 20% and 40%, respectively.
Consider `Cc1ccc(C(=O)N2CCC(CC3CC(=O)C(c4c(C)cc(C)cc4C)C3=O)CC2)cc1` (stereo not shown) [Compound T78], for which the pest or weed control at 250 g/ha was found to be 30% with Lolium perenne (LOLPE) [1]; 20% in assay [2]; 30% in assay [3]; 0% in the assay with Avena fatua (AVEFA) [4]; 50% in the assay with Lolium perenne (LOLPE) [5]; 40% in assay [6]. Moreover, the results for the pest or weed control at 250 g/ha (in assay [7]; in the assay on Avena fatua (AVEFA) [8]) were 70% and 40%, respectively.
In the case of `Cc1cc(C)c(C2C(=O)CC(CC3CCN(C(=O)C(C)(C)C)CC3)C2=O)c(C)c1` (stereo not shown) [Compound T79], the pest or weed control at 250 g/ha with Lolium perenne (LOLPE) [1] is 90%; in assay [2] it was 60%; in assay [3], 60%; with Avena fatua (AVEFA) [4] it was 20%; in the assay on Lolium perenne (LOLPE) [5], 60%; in assay [6], 60%. Moreover, the pest or weed control at 250 g/ha in assay [7] was found to be 70%; with Avena fatua (AVEFA) [8], 80%.
